row,Structure (SMILES),melting point
1,CC(C)(C)[C@H]1C(O)=C(C2=NS(=O)(=O)c3c2cccc3-c2cccnc2)C(=O)N1Cc1ccc(F)cc1,> 275 °C
2,COc1ccc(-c2cccc3c2S(=O)(=O)N=C3C2=C(O)[C@H](C(C)(C)C)N(Cc3ccc(F)cc3)C2=O)cn1,185 to 190 °C
3,CC(=O)Nc1cccc(-c2cccc3c2S(=O)(=O)N=C3C2=C(O)[C@H](C(C)(C)C)N(Cc3ccc(F)cc3)C2=O)c1,255 to 260 °C
4,CC(C)(C)[C@H]1C(O)=C(C2=NS(=O)(=O)c3c(CNS(=O)(=O)N4CCCC4)cccc32)C(=O)N1Cc1ccc(F)cc1,112 to 125 °C
5,CC(C)(C)[C@H]1C(O)=C(C2=NS(=O)(=O)c3c2cccc3-c2cncnc2)C(=O)N1Cc1ccc(F)cc1,> 250 °C
6,CC(C)(C)[C@H]1C(O)=C(C2=NS(=O)(=O)c3c2cccc3-c2cccc(=O)[nH]2)C(=O)N1Cc1ccc(F)cc1,> 250 °C
7,CC(C)(C)[C@H]1C(O)=C(C2=NS(=O)(=O)c3c(N)cccc32)C(=O)N1Cc1ccc(F)cc1,155 to 160 °C
8,CC(C)(C)[C@H]1C(O)=C(C2=NS(=O)(=O)c3c(NCC(N)=O)cccc32)C(=O)N1Cc1ccc(F)cc1.N,> 250 °C
9,CC(C)(C)[C@H]1C(O)=C(C2=NS(=O)(=O)c3c2ccc2ccccc32)C(=O)N1Cc1ccc(F)cc1,205 °C (dec.)
10,CS(=O)(=O)NCc1cccc2c1S(=O)(=O)N=C2C1=C(O)[C@H](C2CCCCC2)N(Cc2ccc(F)cc2)C1=O,130 to 137 °C
11,Cc1cc(CN2C(=O)C(C3=NS(=O)(=O)c4c(CNS(C)(=O)=O)cccc43)=C(O)C2c2ccc(F)cc2)ccc1F (centres unmarked),> 250 °C
12,CNC(=O)NCc1cccc2c1S(=O)(=O)N=C2C1=C(O)[C@H](C(C)(C)C)N(Cc2ccc(F)cc2)C1=O,> 250 °C
13,CC(C)(C)[C@H]1C(O)=C(C2=NS(=O)(=O)c3c(CS(N)(=O)=O)cccc32)C(=O)N1Cc1ccc(F)cc1,159 to 173 °C
14,CN(C)S(=O)(=O)N(C)Cc1cccc2c1S(=O)(=O)N=C2C1=C(O)[C@H](C(C)(C)C)N(Cc2ccc(F)cc2)C1=O,109 to 115 °C
15,CC(=O)N1CCN(S(=O)(=O)NCc2cccc3c2S(=O)(=O)N=C3C2=C(O)[C@H](C(C)(C)C)N(Cc3ccc(F)cc3)C2=O)CC1,248 to 260 °C

# Results, then the molecule that gave them:
row,melting point,Structure (SMILES)
1,259 to 261 °C,O=S1(=O)N=C(c2nc(Cc3ccc(F)cc3)c3ccccc3c2O)c2cccc(N3CCOCC3)c21
2,> 275 °C,O=S1(=O)N=C(c2nc(Cc3ccc(F)cc3)c3ccccc3c2O)c2cccc(-c3ccc(F)cc3)c21
3,> 275 °C,CS(=O)(=O)Nc1cccc(-c2cccc3c2S(=O)(=O)N=C3c2nc(Cc3ccc(F)cc3)c3ccccc3c2O)c1
4,> 275 °C,Cc1ccc2c(Cc3ccc(F)cc3)nc(C3=NS(=O)(=O)c4ccccc43)c(O)c2c1
5,215 to 217 °C,CN(c1ccc(F)cc1)c1nc(C2=NS(=O)(=O)c3ccccc32)c(O)c2ccccc12
6,270 to 272 °C,O=S1(=O)N=C(c2nc(NCC3CC3)c3ccccc3c2O)c2ccccc21
7,105 to 123 °C,CC(C)(C)[C@H]1C(O)=C(C2=NS(=O)(=O)c3ccccc32)C(=O)N1Cc1cccs1
8,155 to 160 °C,CC[C@H](C)[C@H]1C(O)=C(C2=NS(=O)(=O)c3ccccc32)C(=O)N1Cc1ccc(F)cc1
9,200 °C (dec.),CC(C)C[C@H]1C(O)=C(C2=NS(=O)(=O)c3ccccc32)C(=O)N1Cc1ccc(F)cc1
10,170 to 179 °C,CC(C)(C)[C@H]1C(O)=C(C2=NS(=O)(=O)c3ccccc32)C(=O)N1Cc1ccccc1
11,105 to 112 °C,CC(C)(C)[C@H]1C(O)=C(C2=NS(=O)(=O)c3ccccc32)C(=O)N1Cc1ccc(F)c(C#N)c1
12,149 to 190 °C,CC(C)(C)[C@H]1C(O)=C(C2=NS(=O)(=O)c3ccccc32)C(=O)N1Cc1ccc(=O)[nH]c1
13,205 to 210 °C,CCc1cc(CN2C(=O)C(C3=NS(=O)(=O)c4ccccc43)=C(O)[C@@H]2C(C)(C)C)ccc1F
14,93 to 107 °C,Cc1ccc(CN2C(=O)C(C3=NS(=O)(=O)c4ccccc43)=C(O)[C@@H]2C(C)(C)C)cc1
